Two compounds from patent publication US12551436B2, “Dosing regimens for treatment of proliferative disorders” (priority 2018, dated 2026) can be followed below.

Several values for one entry are separate records, joined by “and”; a condition that tells them apart may be missing. Identical values can stand only once. Like-named read-outs stand apart in the source and are kept apart here.

This series in a line: Pharmacokinetics of curcumin and THC in plasma during and after liposomal curcumin infusion. The settings on record: for AUC(0-t): read-out: AUC0-Tlast. The series is classed as in vivo, human. As to the method: Patient #21 was excluded from the PK analysis because the infusion was interrupted for 1.5 h.
Pharmacokinetic assessments. […] Samples for infusion #1 were collected at baseline (BL), 2 h after start of infusion and after end of infusion at 0 min=EOI, 10 min, 20 min, 30 min, 45 min, 60 min and 120 min and at EOI for infusions #2, #3, #5 and #8. […] The number of blood collections remained unchanged.

Setting [1] is: plasma THC, first liposomal curcumin infusion, DL 3: 150 mg/m^2, 8 h infusion, patient 17.
Where [2] appears, read: plasma THC, first liposomal curcumin infusion, DL 4: 190 mg/m^2, 8 h infusion, Mean, patient #19 not included.
Where [3] appears, read: plasma THC, first liposomal curcumin infusion, DL 4: 190 mg/m^2, 8 h infusion, individual patients.
Setting [4] is: plasma THC, first liposomal curcumin infusion, DL 6: 300 mg/m^2, 8 h infusion, Mean.
The mark [5] stands for this setting: plasma THC, first liposomal curcumin infusion, DL 6a: 300 mg/m^2, 6 h infusion, Mean.
Setting [6] is: plasma THC, first liposomal curcumin infusion, DL 6a: 300 mg/m^2, 6 h infusion, individual patients.

Usually Cmax stands for the maximum level reached in the sampled fluid or tissue. In general, Tmax refers to the time at which the peak concentration occurs. With `COc1cc(/C=C/C(=O)CC(=O)/C=C/c2ccc(O)c(OC)c2)ccc1O` [Curcumin, (1E6E)-1,7-bis(4 hydroxy-3-methoxyphenyl)-1,6-heptadiene-3,5 dione], the Cmax (human, in vivo, 240 mg/m^2, plasma curcumin, first liposomal curcumin infusion, DL 5: 240 mg/m^2 8 h infusion, Mean, read-out: Cmax) was determined as 647 ng/mL. For the same compound, for the setting “human, in vivo, mean Tmax for curcumin”, the Tmax fell in the range of 3.6 to 4 h.
As for `COc1cc(CCC(=O)CC(=O)CCc2ccc(O)c(OC)c2)ccc1O` [tetrahydrocurcumin], the plasma samples result (DL 1-DL 3 (100 to 150 mg/m^2), patients with only one blood collection during infusion, most samples) was “below the limit of quantification”. Moreover, the AUC(0-t) is, setting by setting: (human, in vivo, 150 mg/m^2, plasma THC, first liposomal curcumin infusion, DL 3: 150 mg/m^2, 8 h infusion, patient 17) 59 ng·h/mL; (human, in vivo, 190 mg/m^2, plasma THC, first liposomal curcumin infusion, DL 4: 190 mg/m^2, 8 h infusion, Mean, patient #19 not included) 27 ng·h/mL; (human, in vivo, 300 mg/m^2, plasma THC, first liposomal curcumin infusion, DL 6: 300 mg/m^2, 8 h infusion, Mean) 344 ng·h/mL; (human, in vivo, 300 mg/m^2, plasma THC, first liposomal curcumin infusion, DL 6a: 300 mg/m^2, 6 h infusion, Mean) 326 ng·h/mL. Further, the Cmax was 16.1 ng/mL (human, in vivo, 150 mg/m^2, plasma THC, first liposomal curcumin infusion, DL 3: 150 mg/m^2, 8 h infusion, patient 17, read-out: Cmax); 7.2 ng/mL (human, in vivo, 190 mg/m^2, plasma THC, first liposomal curcumin infusion, DL 4: 190 mg/m^2, 8 h infusion, Mean, patient #19 not included, read-out: Cmax); 74.4 ng/mL (human, in vivo, 300 mg/m^2, plasma THC, first liposomal curcumin infusion, DL 6: 300 mg/m^2, 8 h infusion, Mean, read-out: Cmax); 70.3 ng/mL (human, in vivo, 300 mg/m^2, plasma THC, first liposomal curcumin infusion, DL 6a: 300 mg/m^2, 6 h infusion, Mean, read-out: Cmax); 7.7 ng/mL and 396.1 ng/mL and 6.6 ng/mL under setting [3]; 110.4 ng/mL and 35.1 ng/mL and 80.1 ng/mL and 67.6 ng/mL and 70.7 ng/mL and 58.3 ng/mL under setting [6]. For the same compound, the time of peak concentration (Tmax) (human, in vivo, 150 mg/m^2, plasma THC, first liposomal curcumin infusion, DL 3: 150 mg/m^2, 8 h infusion, patient 17, read-out: Tmax) was found to be 4 h; the Tmax (human, in vivo, 190 mg/m^2, plasma THC, first liposomal curcumin infusion, DL 4: 190 mg/m^2, 8 h infusion, Mean, patient #19 not included, read-out: Tmax) was 5 h; the time to peak (Tmax) (human, in vivo, 300 mg/m^2, plasma THC, first liposomal curcumin infusion, DL 6: 300 mg/m^2, 8 h infusion, Mean, read-out: Tmax) turned out to be 2.5 h; the Tmax (human, in vivo, 300 mg/m^2, plasma THC, first liposomal curcumin infusion, DL 6a: 300 mg/m^2, 6 h infusion, Mean, read-out: Tmax) was 3.7 h; the time of peak concentration (Tmax) under setting [3] is 8.1 h and 6.0 h; the Tmax under setting [6] was 2.0 h and 5.9 h and 5.8 h. Moreover, the “AUC0-TLast of THC as percentage of curcumin” value is, setting by setting: (mean across individual patients) 8.5%; (range across individual patients) 2.1%-21.8%. Further, the Clast reads like this: under setting [1], 10.3 ng/mL; under setting [2], 7.2 ng/mL; under setting [3], 7.7 ng/mL and 11.8 ng/mL and 6.6 ng/mL; under setting [4], 21.8 ng/mL; under setting [5], 6.2 ng/mL; under setting [6], 6.9 ng/mL and 5.2 ng/mL (2×) and 6.0 ng/mL and 8.4 ng/mL and 5.7 ng/mL. The Tlast was 6.0 h under setting [1]; 5.0 h under setting [2]; 4.0 h and 8.8 h and 6.0 h under setting [3]; 7.7 h under setting [4]; 6.6 h under setting [5]; 6.8 h (2×) and 7.3 h and 6.0 h and 6.6 h and 6.2 h under setting [6]. The AUC0-Tlast by setting is: under setting [3], 22 ng·h/mL and 1656 ng·h/mL and 31 ng·h/mL; under setting [6], 497 ng·h/mL and 155 ng·h/mL and 385 ng·h/mL and 332 ng·h/mL and 321 ng·h/mL and 264 ng·h/mL.
